From patent US20160304552A1, “MODIFIED NUCLEIC ACID MOLECULES AND USES THEREOF” (MODERNA THERAPEUTICS, INC., priority 2013, published 2016)

Assays:
[1] = test system: HeLa cells; test: Transfection in HeLa cells, human EPO modRNA (EPO ELISA of supernatant); format: cell-based; settings: Table 22, 18 h to 22 h
Description: (§1) The day before transfection, 20.000 HeLa cells (ATCC no. CCL-2; Manassas, Va.) were harvested by treatment with Trypsin-EDTA solution (LifeTechnologies, Grand Island, N.Y.) and seeded in a total volume of 100 ul EMEM medium (supplemented with 10% FCS and 1× Glutamax) per well in a 96-well cell culture plate (Corning, Manassas, Va.). The cells were grown at 37° C. in 5% CO2 atmosphere overnight. Next day, 83 ng of Luciferase modRNA or 250 ng of human GCSF modRNA, harboring chemical modifications on the bases or the ribose units, were diluted in 10 ul final volume of OPTI-MEM (LifeTechnologies, Grand Island, N.Y.). Lipofectamine 2000 (LifeTechnologies, Grand Island, N.Y.) was used as transfection reagent and 0.2 μl were diluted in 10 ul final volume of OPTI-MEM. After 5 min incubation at room temperature, both solutions were combined and incubated additional 15 min at room temperature. Then the 20 μl were added to the 100 ul cell culture medium containing the HeLa cells. The plates were then incubated as described before.
(§2) After 18 h to 22 h incubation, cell culture supernatants of cells expressing human GCSF or human EPO were collected and centrifuged at 10.000 rcf for 2 min. The cleared supernatants were transferred and analyzed with a human GCSF-specific or EPO ELISA kit (both from R&D Systems, Minneapolis, Minn.; Cat. #s SCS50, DEP00, respectively) according to the manufacturer instructions. All samples were diluted until the determined values were within the linear range of the human GCSF or EPO ELISA standard curve.

[2] = test system: HeLa cells; test: Transfection in HeLa cells, Luciferase modRNA (luciferase assay, relative light units); format: cell-based, human; settings: Table 22, 83 ng modRNA, Lipofectamine 2000, 18 h to 22 h
Description: as §1
After 18 h to 22 h incubation, cells expressing luciferase were lysed with 100 μl Passive Lysis Buffer (Promega, Madison, Wis.) according to manufacturer instructions. Aliquots of the lysates were transferred to white opaque polystyrene 96-well plates (Corning, Manassas, Va.) and combined with 100 ul complete luciferase assay solution (Promega, Madison, Wis.). The lysate volumes were adjusted or diluted until no more than 2 mio relative light units per well were detected for the strongest signal producing samples. […] The plate reader was a BioTek Synergy H1 (BioTek, Winooski, Vt.).

[3] = molecular target: T7 RNA polymerase (Escherichia phage T7, UniProt P00573); test: In vitro transcription yields of modified mRNA; format: biochemical; settings: for EPO In Vitro Transcription yield: EPO mRNA made with the modified NTP(s); for GCSF In Vitro Transcription yield: GCSF mRNA made with the modified NTP(s); for Luc In Vitro Transcription yield: Luciferase mRNA made with the modified NTP(s)
Description: The in vitro transcription reaction generates mRNA containing modified nucleotides or modified RNA. The input nucleotide triphosphate (NTP) mix is made in-house using natural and unnatural NTPs.
A typical in vitro transcription reaction includes the following:
Incubation at 37° C. for 3 hr-5 hrs.
The crude IVT mix may be stored at 4° C. overnight for cleanup the next day. 1 U of RNase-free DNase is then used to digest the original template. After 15 minutes of incubation at 37° C., the mRNA is purified using Ambion's […]™ Kit (Austin, Tex.) following the manufacturer's instructions. This kit can purify up to 500 μg of RNA. Following the cleanup, the RNA is quantified using the NanoDrop and analyzed by agarose gel electrophoresis to confirm the RNA is the proper size and that no degradation of the RNA has occurred.
Modified mRNAs in TE buffer (1 μl) are used for Nanodrop UV absorbance readings to quantitate the yield of each modified mRNA from an in vitro transcription reaction (UV absorbance traces are not shown).

[4] = test system: HeLa cells; test: Transfection in HeLa cells, human GCSF modRNA (GCSF ELISA of supernatant); format: cell-based; settings: Table 22, 250 ng modRNA, 18 h to 22 h
Description: as §1, §2

[5] = test system: Rabbit Reticulocyte Lysate; test: In vitro translation screen, human GCSF modRNA (GCSF ELISA); format: biochemical; settings: Table 20; 250 ng modRNA, 45 min, 30° C.
Description: (§3) The in vitro translation assay was done with the Rabbit Reticulocyte Lysate (nuclease-treated) kit (Promega, Madison, Wis.; Cat. #L4960) according to the manufacturer's instructions. The reaction buffer was a mixture of equal amounts of the amino acid stock solutions devoid of Leucine or Methionine provided in the kit.
(§4) The modRNAs of firefly Luciferase, human GCSF and human EPO, harboring chemical modifications on either the bases or the ribose units, were diluted in sterile nuclease-free water to a final concentration of 250 ng in 2.5 ul (Stock 100 ng/μl). The modRNA (250 ng) was added to the mixture of freshly prepared Rabbit Reticulocyte Lysate and reaction buffer.
(§5) Aliquots of the in vitro translation reaction containing human GCSF modRNA or human EPO mRNA were transferred and analyzed with a human GCSF-specific or EPO ELISA kit (both from R&D Systems, Minneapolis, Minn.; Cat. #s SCS50, DEP00 respectively) according to the manufacturer instructions. All samples were diluted until the determined values were within the linear range of the human GCSF or EPO ELISA standard curve.

[6] = test system: Rabbit Reticulocyte Lysate; test: In vitro translation screen, human EPO modRNA (EPO ELISA); format: biochemical; settings: Table 20; 250 ng modRNA, 45 min, 30° C.
Description: as §3, §4, §5

[7] = test system: Rabbit Reticulocyte Lysate; test: In vitro translation screen, firefly Luciferase modRNA (luciferase assay, relative light units); format: biochemical; settings: Table 20; 250 ng modRNA, 45 min, 30° C.
Description: as §3, §4
After 45 min incubation, the reaction was stopped by placing the plate on ice. Aliquots of the in vitro translation reaction containing luciferase modRNA were transferred to white opaque polystyrene 96-well plates (Corning, Manassas, Va.; Cat. # CLS3912) and combined with 100 ul complete luciferase assay solution (Promega, Madison, Wis.). The volumes of the in vitro translation reactions were adjusted or diluted until no more than 2 million relative light units per well were detected for the strongest signal producing samples. […] The plate reader was a BioTek Synergy H1 (BioTek, Winooski, Vt.).

T7 RNA polymerase, sequence (P00573 whole entry): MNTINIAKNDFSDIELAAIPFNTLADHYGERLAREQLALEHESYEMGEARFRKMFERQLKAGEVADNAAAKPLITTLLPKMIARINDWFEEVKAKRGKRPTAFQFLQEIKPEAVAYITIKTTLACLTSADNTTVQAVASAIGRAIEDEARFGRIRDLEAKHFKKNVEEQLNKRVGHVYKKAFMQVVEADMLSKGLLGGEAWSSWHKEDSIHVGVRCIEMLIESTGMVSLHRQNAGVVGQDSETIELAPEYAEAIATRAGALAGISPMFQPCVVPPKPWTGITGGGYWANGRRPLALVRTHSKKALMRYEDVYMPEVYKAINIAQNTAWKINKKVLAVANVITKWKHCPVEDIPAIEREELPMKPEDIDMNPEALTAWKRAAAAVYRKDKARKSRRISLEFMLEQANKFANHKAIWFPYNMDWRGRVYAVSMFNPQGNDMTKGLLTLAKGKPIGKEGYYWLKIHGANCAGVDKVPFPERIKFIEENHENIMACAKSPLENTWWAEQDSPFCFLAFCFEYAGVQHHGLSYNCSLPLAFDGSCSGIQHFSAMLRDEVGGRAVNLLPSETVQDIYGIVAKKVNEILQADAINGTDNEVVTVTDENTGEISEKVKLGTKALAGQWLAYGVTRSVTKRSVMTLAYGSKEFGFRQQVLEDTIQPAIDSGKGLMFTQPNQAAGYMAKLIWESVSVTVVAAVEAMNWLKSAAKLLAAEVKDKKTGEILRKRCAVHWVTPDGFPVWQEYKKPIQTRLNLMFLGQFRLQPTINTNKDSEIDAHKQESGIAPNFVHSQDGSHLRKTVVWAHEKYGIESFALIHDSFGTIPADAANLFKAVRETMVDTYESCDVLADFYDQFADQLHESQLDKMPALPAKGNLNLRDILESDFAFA

| Structure (SMILES) | Epo Expression [1] | Luc Expression (RLUs) [2] | EPO In Vitro Transcription yield [3] | GCSF In Vitro Transcription yield [3] | Luc In Vitro Transcription yield [3] | GCSF Expression [4] | GCSF Expression [5] | Epo Expression [6] | Luc Expression (RLUs) [7] |
| --- | --- | --- | --- | --- | --- | --- | --- | --- | --- |
| NC/C=C/c1cn([C@@H]2O[C@H](COP(=O)(O)OP(=O)(O)OP(=O)(O)O)C(O)C2O)c(=O)nc1N (stereo in doubt) [03601014009 (381), 5-Aminoallyl-CTP] | 3488 pg/mL | 319.00 RLUs | 0.4943 mg | 0.4567 mg | 0.3471 mg | 24290 pg/mL | 1806 pg/mL | 169 pg/mL | 887 RLUs |
| CCn1cc([C@@H]2O[C@H](COP(=O)(O)OP(=O)(O)OP(=O)(O)O)C(O)C2O)c(=O)[nH]c1=O (stereo in doubt) [03601015003 (172), 1-Ethyl-pseudo-UTP] | 52780 pg/mL | 130.50 RLUs | 1.095 mg | 0.5464 mg | 0.6304 mg | 209300 pg/mL | 5700 pg/mL | 7894 pg/mL | 122 RLUs |
| O=c1ccn([C@@H]2O[C@H](COP(=O)(O)OP(=O)(O)OP(=O)(O)O)C(O)C2O)c(=S)[nH]1 (stereo in doubt) [Compound 00901013008, 2-Thio-UTP] | 182600 pg/mL | 423.00 RLUs | 0.3630 mg | 0.3359 mg | 0.2792 mg | 214300 pg/mL | 3744 pg/mL | 1894 pg/mL | 1181 RLUs |
| O=c1[nH]c(=O)n([C@@H]2O[C@H](COP(=O)(O)OP(=O)(O)OP(=O)(O)O)C(O)C2O)cc1Br (stereo in doubt) [Compound 00901013009, 5-Bromo-UTP] | 210500 pg/mL | 2731 RLUs | 0.2617 mg | 0.3566 mg | 0.3352 mg | 118600 pg/mL | 21530 pg/mL | 18220 pg/mL | 218500 RLUs |
| NC/C=C/c1cn([C@@H]2O[C@H](COP(=O)(O)OP(=O)(O)OP(=O)(O)O)C(O)C2O)c(=O)[nH]c1=O (stereo in doubt) [Compound 00901013010, 5-Aminoallyl-UTP] | 67440 pg/mL | 1946 RLUs | 0.3732 mg | 0.4206 mg | 0.3513 mg | 40710 pg/mL | 3706 pg/mL | 1863 pg/mL | 14870 RLUs |
| O=c1ccn([C@@H]2O[C@H](COP(O)(=S)OP(=O)(O)OP(=O)(O)O)C(O)C2O)c(=O)[nH]1 (stereo in doubt) [Compound 00902013001, Alpha-thio-UTP] | 190700 pg/mL | 937.0 RLUs | 0.2666 mg | 0.2605 mg | 0.3510 mg | 73570 pg/mL | 20530 pg/mL | 14260 pg/mL | 51180 RLUs |
| Nc1ccn([C@@H]2O[C@H](COP(O)(=S)OP(=O)(O)OP(=O)(O)O)C(O)C2O)c(=O)n1 (stereo in doubt) [Compound 00902014001, Alpha-thio-CTP] | 195400 pg/mL | 1845 RLUs | 0.2669 mg | 0.2650 mg | 0.3352 mg | 285000.00 pg/mL | 26930 pg/mL | 17000 pg/mL | 142900 RLUs |
